Reference: patent publication EP3666770A1, “NOVEL HETEROCYCLIC COMPOUNDS AS CDK8/19 INHIBITORS” (Joint Stock Company "Biocad", priority 2017, dated 2019)
pIC50: −log10 of the molar value. Read-outs that look alike come from different tables or passages of the source.

Legend:
[1] = test system: KG-1; experiment: Cell-based antiproliferative test (AlamarBlue), KG-1; settings: Homo sapiens, KG-1; 120 h incubation; average values of several tests; read-out: KG-1 IC50, mkM
Experimental: (§1) Antiproliferative activity of CDK8 inhibitors according to the present invention was measured in a cell-based test on continuous cell cultures MV4-11 (biphenotypic myelomonocytic leukemia, ATCC® CRL-9591™), KG-1 (acute myeloid leukemia, ATCC® CCL-246™), HL-60 (acute promyelocytic leukemia, ATCC® CCL-240™) using a vital stain AlamarBlue (ThermoFisher, #DAL1100). The cells were grown in RPMI-1640 (PanEco, #C330p) medium with addition of 10% FBS (Gibco, #16140-071); washed and resuspended in culture medium with 10% FBS (Gibco, #16140-071) in 96-well culture plates (Corning, #3599) with ≈ 10 ×10^3 cells in […] of medium per well. The compounds in question were dissolved in DMSO and diluted with a medium with 10% FBS (Gibco, #16140-071) to a final concentration ranging form 0 to 100 µM. […] of diluted compounds were then added to each well (final DMSO concentration was less than 1%) and incubated under 5% CO2 atmosphere at 37°C for 120 h. After incubating, 15 µL of AlamarBlue (ThermoFisher, #DAL1100) reagent was added per well, contents of plates were mixed in an orbital shaker (Biosan, Latvia) and further incubated for 3-5 h at 37°C under 5% CO2 atmosphere. Number of living cells was estimated using a microplate spectrophotometer (Tecan Infinite M200Pro, Switzerland) measuring fluorescent signal at the excitation wavelength (λEx) of 540 nm and emission wavelength (λEm) of 590 nm.
(§2) IC50 was calculated using Magellan 7.2 software (Tecan, Switzerland) approximating experimental points by four-parameter logistic model with the optimization by Levenberg-Marquardt (table 7, table 7).

[2] = General cytotoxicity test on HepG2 cells; type: cell-based; settings: human, 72 h incubation, 200 to 0.78 µM, average values of several tests, read-out: Hep-G2 CC50, mkM
Experimental: Cell viability was assessed using the above method. Table 6. […] The results are presented as average values of activity obtained in several tests.

[3] = test system: MV4-11; experiment: Cell-based antiproliferative test (AlamarBlue), MV4-11; settings: Homo sapiens, MV4-11, 120 h, 120 h incubation; average values of several tests; read-out: MV-4-11 IC50, mkM
Experimental: as §1, §2

[4] = Chemical stability in simulated gastric fluid (SGF); type: physicochemical; settings: SGF without enzymes, pH=1,4; 10 µm; 2 hours at 37°C; substance amount in % after thermostatting
Experimental: (§3) Chemical stability of the compounds described herein was determined in simulated gastric fluid and human blood plasma.
SGF concentrate without enzymes, pH=1,4 (Sigma Ireland, cat#01651) was used as simulated gastric fluid. Initial candidate solution (10 mM in DMSO) was diluted with an SGF working solution to a concentration of […] (test solution). The test solution was incubated in a dry block thermostat for 2 hours at 37°C. HPLC with Agilent 1200 liquid chromatography system (Agilent, USA) was employed to determine peak areas of the compounds in test samples, said peak areas corresponding to the initial test time (prior to incubation) and the final test time (after incubation in a dry block thermostat for 2 hours at 37°C). Chromatographic analysis was performed in a gradient elution regime with a flow rate of 1 mL/min. Substance amount in % in a sample after thermostatting was determined.

[5] = Chemical stability in human blood plasma; type: in vitro ADME; settings: pooled human blood plasma; 10 µM; 4 hours at 37°C; substance amount in % after thermostatting
Experimental: as §3
Determination of stability in human blood plasma was performed using pooled human blood plasma taken from ten healthy donors. The initial candidate solution (10 mM in DMSO) was diluted with pooled blood plasma to a concentration of […] (test solution). The test solution was incubated in a dry block thermostat for 4 hours at 37°C. HPLC with Agilent 1200 liquid chromatography system (Agilent, USA) was employed to determine peak areas of the compounds in test samples, said peak areas corresponding to the initial test time (prior to incubation) and the final test time (after incubation in a dry block thermostat for 4 hours at 37°C), proteins were preliminarily precipitated with acetonitrile. Chromatographic analysis was performed in a gradient elution regime with a flow rate of 1 mL/min. Substance amount in % in a sample after thermostatting was determined.

[6] = test system: HL-60; experiment: Cell-based antiproliferative test (AlamarBlue), HL-60; settings: Homo sapiens, HL-60, 120 h, 120 h incubation; average values of several tests; read-out: HL-60 IC50, mkM
Experimental: as §1, §2

[7] = Permeability through Caco-2 cell monolayer; type: in vitro ADME; settings: human, Caco-2; for Papp A→B at 2 h, 10 µM: A->B transfer, pH 6.5 -> pH 7.4, 2 hours at 37 °C; for efflux ratio at 2 h, 10 µM: efflux = Papp B-A / Papp A-B
Experimental: Estimation of permeability through Caco-2 cell monolayer enables assessment of the ability of the substances to penetrate through biological membranes by means of both active and passive transport.
Intestinal epithelial cells Caco-2 were grown on filter inserts (pore size 0.4 µm, BD Falcon with High Density) for 21 days; monolayer integrity was then checked using Lucifer Yellow (Sigma-Aldrich, USA) according to the standard protocol. In A->B transfer ("intestinal lumen" - "blood stream" transfer), solutions of the test substances in buffer, pH 6.5 (HBSS, 10 mM HEPES, 15 mM glucose) at a concentration of 10 µM were added to the upper chamber; whereas the lower chamber was filled with buffer, pH 7.4 (HBSS, 10 mM HEPES, 15 mM Glucose, 1% BSA). In B->A transfer ("blood stream" - "intestinal lumen" transfer), the upper chamber was filled with buffer, pH 6.5, whereas the solutions of the test substances in buffer, pH 7.4, at a concentration of 10 µM were added to the lower chamber. A highly permeable substance propranolol was used as a control.
After 2 hours incubation at 37 ° C under an atmosphere containing 5% CO2, the amounts of the test substances in the upper and lower chambers were measured by HPLC using an Agilent1200 HPLC system (Agilent, USA), proteins were preliminarily precipitated with acetonitrile. Chromatographic analysis was performed in a gradient elution regime with a flow rate of 1 mL/min. The peak areas corresponding to the compounds were detected on chromatograms.
The value was calculated using the formula: efflux = Papp B−A /Papp A−B , [formula] where • Papp A-E - the value of permeability direct analysis A→ B; • Papp B-A - the value of the permeability of the reverse analysis B→ A.

[8] = Enzyme stability in human liver microsomes; type: in vitro ADME; settings: pH 7.4; 0,5 mg/mL pooled human liver microsomes; 10 µM compound; 37°C; pH=7,4
Experimental: Measuring of candidates' enzyme stability enabled estimation of the stability of the present compounds towards the action of enzymes in liver microsomes.
Enzyme degradation rate was measured by incubating the reaction mixture in a dry block thermostat at 37°C, said reaction mixture comprising 0,5 mg/mL of pooled human liver microsomes (XenoTech, USA, cat#H2620), 10 µM compound, 2 mM β-nicotinamide adenine dinucleotide (Carbosynth, UK, cat#NN10871) and 4 mM magnesium chloride in 0,1 M sodium-phosphate buffer, pH=7,4. The reaction was quenched with acetonitrile (100 µL of acetonitrile / 100 µL of the reaction mixture). After quenching, the samples were centrifuged at 10000 rpm for 10 minutes. Supernatant fluid was tested by chromatographic technique using Agilent1200 (Agilent, USA). Chromatographic analysis was performed in a gradient elution regime with a flow rate of 1 mL/min. A graph of the logarithm of substance's peak area as a function of time was made. The dependent factor of the line corresponded to the elimination rate constant K based on which the drug's half-life t1/2 and degradation rate CLint were calculated: Elimination rate constant (k) = (−gradient) [formula] [formula] V(μL/mg) = (volume of incubation(μL))/(protein in the incubation(mg)) [formula] [formula]

SMILES | pIC50 [1] | CC50 at 72 h ([2]; HepG2 cells) [µM] | pIC50 [3] | Stability in SGF, % [4] [%] | Stability in blood plasma, % [5] [%] | pIC50 [6] | CC50 at 72 h [2] [µM] | Papp A→B at 2 h, 10 µM [7] [×10⁻⁶ cm/s] | efflux ratio at 2 h, 10 µM [7] | microsomal CLint at 10 µM [8] [µL/min/mg]
Cn1cc(-c2ccc(-c3ccc4nccc(C(=O)N5CCCCC5)c4c3)cc2)cn1 [CDK8-5-8, (6-(4-(1-Methyl-1H-pyrazol-4-yl)phenyl)quinolin-4-yl) (piperidin-1-yl)methanone] | 4.76 | > 50 | 5.43 | 100 | 98.2 | 4.61 |  |  |  | 
COc1cc(-c2cnc3[nH]cc(C(=O)c4ccncc4)c3c2)ccc1N1CCOCC1 [CDK8-4-31, (5-(3-Methoxy-4-morpholinophenyl)-1H-pyrrolo[2,3-b]pyridin-3-yl) (pyridin-4-yl) methanone] | 4.66 |  | 6.21 | 99.9 |  |  | > 100 | 36.1 | 0.35 | 
Cn1cc(-c2ccc(-n3cnc4ccc(C(=O)N5CCC5)cc43)cc2)cn1 [CDK8-1-18, Azetidin-1-yl(1-(4-(1-methyl-1H-pyrazol-4-yl)phenyl)-1H-benzo[d]imidazol-6-yl) methanone] | 5.67 | > 100 | 5.32 | 100 | 100 | < 4.00 |  |  |  | 14.6
COc1cccc(C(=O)c2c[nH]c3ncc(-c4ccc(N(C)C)cc4)cc23)c1 [CDK8-4-34, (5-(4-(Dimethylamino)phenyl)-1H-pyrrolo[2,3-b]pyridin-3-yl) (3-methoxyphenyl) methanone] | 6.70 | 2.6 | 6.85 | 99.5 | 100 | 7.09 |  |  |  | 24.2
CN(C)c1ccc(-c2cnc3[nH]cc(C(=O)c4cccnc4)c3c2)cc1 [CDK8-4-39, (5-(4-(Dimethylamino)phenyl)-1H-pyrrolo[2,3-b]pyridin-3-yl) (pyridin-3-yl)methanone] | 4.56 | > 100 | 6.72 | 100 | 100 |  |  |  |  | 23.6
NC(=O)c1ccc(-n2cnc3ccc(N4CC(C(=O)Nc5ccccc5)C4)cc32)cc1 [CDK8-1-6, 1-(1-(4-Carbamoylphenyl)-1H-benzo[d]imidazol-6-yl)-N-phenylazetidine-3-carboxamide] | < 5.00 | > 100 | 5.79 | 98.9 | 100 | 5.09 |  |  |  | 23.4
Cn1cc(-c2ccc(-c3ccnc4ccc(N5CCCC5=O)cc34)cc2)cn1 [CDK8-6-13, 1-(4-(4-(1-Methyl-1H-pyrazol-4-yl)phenyl)quinolin-6-yl) pyrrolidin-2-one] | 4.91 | > 200 | 4.70 | 99.7 | 98.9 | < 4.22 |  |  |  | 22.6
O=C(c1ccc2ncn(-c3ccc(-c4cn[nH]c4)cc3)c2c1)N1CCC1 [CDK8-1-5, (1-(4-(1H-Pyrazol-4-yl)phenyl)-1H-benzo[d]imidazol-6-yl)(azetidin-1-yl) methanone] | 5.33 | 81.1 | 5.91 | 99.5 | 98.1 | < 4.22 |  |  |  | 
O=C(c1cccnc1)c1c[nH]c2ncc(-c3ccc(N4CCOCC4)cc3)cc12 [CDK8-4-37, (5-(4-Morpholinophenyl)-1H-pyrrolo[2,3-b]pyridin-3-yl) (pyridin-3-yl)methanone] | 5.30 | 118 | 6.89 | 100 | 100 |  |  | 8.63 | 1.08 | 
O=C(c1ccncc1)c1c[nH]c2ncc(-c3ccc(N4CCOCC4)cc3)cc12 [CDK8-4-38, (5-(4-Morpholinophenyl)-1H-pyrrolo[2,3-b]pyridin-3-yl) (pyridin-4-yl)methanone] | 4.22 | > 100 | 6.41 | 100 | 100 |  |  | 13.9 | 0.28 | 20
CN(C)c1ccc(-c2cnc3[nH]cc(C(=O)c4ccncc4)c3c2)cc1 [CDK8-4-40, (5-(4-(Dimethylamino)phenyl)-1H-pyrrolo[2,3-b]pyridin-3-yl) (pyridin-4-yl) methanone] | 4.60 | > 100 | 5.25 | 100 | 100 |  |  |  |  | 35
